Data on two compounds can be found in publication PMC10979003, “Development and crystal structures of a potent second-generation dual degrader of BCL-2 and BCL-xL” (Nature Communications, 2024).

Read-outs that look alike come from different tables or passages of the source.

One assay relates to Jurkat cells. The experiment in a line: TMT-based proteomics in Jurkat cells. It is filed as cell-based, human. The note with it: 100 nM, 8 h. How it is done: To further assess the cellular selectivity of 753b and WH244 for BCL-xL/BCL-2 proteins, multiplexed tandem mass tag (TMT) labeling mass spectrometry proteomic experiments were performed to monitor protein levels in an unbiased fashion. Jurkat cells were treated in triplicate with DMSO, 100 nM 753b or 100 nM WH244 for 8 h (Supplementary Fig. 10b). […] To assess BCL-xL and BCL-2 degradation, we utilized western blotting with the same samples, and successfully verified the degradation of both BCL-xL and BCL-2 proteins induced by 753b and WH244, respectively (Supplementary Fig. 10c). We speculate that these apparently contradictory results may be attributable to some of the limitations of TMT technology, where low TMT-labeling efficiency for some proteins and peptides, can lead to inability to detect these proteins by TMT-based proteomics analysis. This limitation has been observed in several other reported PROTAC studies[52],[53]. […]
Proteins were identified and MS3 reporter ions quantified using MaxQuant (version 2.2.0.0; Max Planck Institute) against the Homo sapiens UniprotKB database (March 2023) with a parent ion tolerance of 3 ppm, a fragment ion tolerance of 0.5 Da, and a reporter ion tolerance of 0.003 Da. […] Protein TMT MS3 reporter ion intensity values were assessed for quality using ProteiNorm for a systematic evaluation of normalization methods. […]

A further assay deals with T1, WT BCL-2 (Homo sapiens, UniProt P10415).
T1 construct: BCL-xL (aa 2-212) and BCL-2 (aa 1-207) transformed cells were grown in LB broth; made in house; host or cells: E. coli BL21 (DE3) codon plus
The experiment in a line: AlphaScreen displacement binary binding assay, WT BCL-2. How it is done: To test the binary/ternary binding affinities of compounds to BCL-2/BCL-xL, AlphaScreen displacement binding assay was performed to test the capabilities of testing compounds to displace a Biotin-tagged Bim (Biotin-[…]) or Bad (Biotin-[…]) from BCL-2 or BCL-xL for BCL-2 and BCL-xL binding affinities, respectively. All reagents were diluted in assay buffer of 25 mM HEPES, pH 7.5, 150 mM NaCl, 0.1% BSA, and 0.005% tween 20 prior incubation. To a 96-well PCR plate (VWR, Cat. No. 82006-636) was added 10 μL Biotin-tagged Bim (15 nM for WT or 50 nM for mutants) or Bad (15 nM for WT or 50 nM for mutants), 10 μL series diluted compounds solution (2 or 3 or 4× dilution), and 10 μL self-made 6×His tagged BCL-2 WT or mutants (25 nM WT or 50 nM mutants) or 10 μL self-made BCL-xL WT and mutants (10 nM WT or 50 nM mutants). After incubating at room temperature for 30 min, 5 µL of 160 μg/mL of anti-6×His acceptor beads (PerkinElmer, Cat. No. AL128M) was added and the mixture was incubated at room temperature for 15 min. 5 µL of 160 μg/mL of streptavidin donor beads (PerkinElmer, 6760002) was then added under subdued light and the mixture was incubated at dark for 30 min before being transferred to two adjacent wells (17 µL each) of 384-well white OptiPlate (PerkinElmer, Cat. No. 6008280). The luminescence signal was detected on a Biotek’s Synergy Neo2 multimode plate reader installed with an AphaScreen filter cube. The Ki values of each compounds were calculated by fitting data into the “Binding-competitive, One site-Fit Ki” function in GraphPad Prism (9.2.0) based on concentrations of Biotin–peptide used and experimentally determined Kd values of each 6×His protein &&&and Biotin–Peptide pair.

Setting [1] is: mean ± s.d., n=3, read-out: Ki (nM, n=3), BCL-2 WT.
The mark [2] stands for this setting: response letter, Supplementary Fig. 11, read-out: Ki, binary complex with BCL-2.

T1 sequence (P10415 1-207): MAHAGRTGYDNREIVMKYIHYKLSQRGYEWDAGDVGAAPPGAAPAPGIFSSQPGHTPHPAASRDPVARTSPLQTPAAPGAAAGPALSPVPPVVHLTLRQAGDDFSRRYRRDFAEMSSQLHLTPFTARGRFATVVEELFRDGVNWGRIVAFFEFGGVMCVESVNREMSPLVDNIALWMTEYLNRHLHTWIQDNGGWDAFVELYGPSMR

Regarding `Cc1ncsc1-c1ccc(C(C)NC(=O)C2CC(O)CN2C(=O)C(NC(=O)CCCCCCC(=O)N2CCN(CC3(C)CCC(c4ccc(Cl)cc4)=C(CN4CCN(c5ccc(C(=O)NS(=O)(=O)c6ccc(NC(CCN7CCOCC7)CSc7ccccc7)c(S(=O)(=O)C(F)(F)F)c6)cc5)CC4)C3)CC2)C(C)(C)C)cc1` (centres unmarked) [753b], in the assay on Jurkat cells, the “Proteins significantly down-regulated among approximately 6000 identified” value is given as “none of which exhibited significant down-regulation”. At WT BCL-2 (Supplementary Fig. 11), the Kd (as a rule, a measure of binding affinity in units of concentration) is ~0.0234 µM. For the same compound, the Ki (as a rule, a dissociation constant, usually derived from enzyme kinetics or from competition with a known ligand) was 24.9 ± 5.4 nM on WT BCL-2 (setting [1]) and 23.4 nM at WT BCL-2 (setting [2]).

As to `Cc1ncsc1-c1ccc([C@H](C)NC(=O)[C@@H]2C[C@@H](O)CN2C(=O)[C@@H](NC(=O)CN2CCN(CC(=O)N3CCN(C[C@]4(C)CCC(c5ccc(Cl)cc5)=C(CN5CCN(c6ccc(C(=O)NS(=O)(=O)c7ccc(N[C@H](CCN8C[C@@H]9C[C@H]8CO9)CSc8ccccc8)c(S(=O)(=O)C(F)(F)F)c7)cc6)CC5)C4)CC3)CC2)C(C)(C)C)cc1` [WH244], the “Proteins significantly down-regulated among approximately 6000 identified” value in the assay with Jurkat cells is listed as “none of which exhibited significant down-regulation”. Moreover, the Kd at WT BCL-2 (Supplementary Fig. 11) was ~0.0031 µM. Besides, the figures for the Ki at WT BCL-2 (setting [1]) and at WT BCL-2 (setting [2]) were 3.5 ± 0.5 nM and 3.1 nM, respectively.
